Reference: EP0036153A1, “1,1-Diphenyl-2-(1,2,4-triazol-1-yl)-ethan-1-oles as antimycotic agents” (BASF Aktiengesellschaft, priority 1980, dated 1981)
Values after ≈ are worked out from the molar mass of the structure shown. Counter-ions that a name gives are not always drawn. Like-named read-outs stand apart in the source and are kept apart here.

Assays:
[1] = tested on: Candida albicans (Robin) Berkhout No 20/M; assay: Pseudomycelium and mycelium phase test with Candida albicans (minimal inhibitory concentration, 100 % inhibition); assay type: cell-based; details: microaerophilic, 2 days, 37°C; for MIC: Candida albicans, 48 h, read-out: MHKMyzelph.
Text: Pseudomyzel- und Myzelphasentest mit Candida albicans: • Dieser Test berücksichtigt, daß C. albicans in vivo nicht nur Sproßzellen, sondern auch Pseudomyzel und echtes Myzel ausbilden kann (Dimorphie). In vitro wird die Ausbildung aller Wachstumsphasen dieses Keimes und der Einfluß von antimyzetisch wirksamen Substanzen in folgender Weise geprüft: Candida albicans (Robin) Berkhout No 20/M (Stamm der Mykothek, Nordmark-Werke GmbH) wird mit der Impföse einerseits auf die Oberfläche A des Nährmediums (Brain Heart Infusion, Difco) und andererseits bei B als Stichkultur angeimpft (Figur).
Im Bereich der Stichkultur wird zusätzlich ein Deckglas C aufgelegt (mikroaerophile Bedingungen). Die Petrischale D enthält im Nährmedium eine geometrisch abgestufte Verdünnungsreihe der jeweiligen Prüfsubstanz. Nach Inkubation dieser Testplatten (2 Tage, 37°C) sind in präparatefreien Kontrollplatten im aeroben Berzirk A ausschließlich Sproßzellen (Hefephase), im mikroaerophilen Bezirk B ausschließlich Pseudohyphen und echte Hyphen gewachsen.
Als minimale Hemmkonzentrationen wurden diejenigen Konzentrationsstufen des Prüfpräparates bezeichnet, bei denen eine 100 %ige Hemmung des jeweiligen Pilzwachstums zu beobachten war.
Diese Testanordnung ermöglicht es, zwischen der minimalen Hemmkonzentration der Hefephase (MHKHefephase) ) und der MHK der Pseudomyzelphase bzw. M^yzelphase (MHKMyzelDhase) für Candida albicans zu unterscheiden.
Während die MHK-Werte für die Hefephase bei über 128 µg/ml liegen, ergeben sich für die Mycelphase äußerst niedrige MHK-Werte, wie aus der Tabelle 1 hervorgeht.

[2] = Acute oral toxicity (LD50) in the mouse; assay type: in vivo; details: for LD50: mouse, in vivo, po, Maus
[3] = tested on: M. audouinii; assay: Agar dilution test against dermatophytes; assay type: cell-based; details: Microsporum audouinii; M. audouinii No. 4; read-out: MHK
Text: (§1) Die antimikrobielle Wirksamkeit in vitro gegen Dermatophyt wurde im Agar-Dilutionstest (Lit.: P. Klein "Bakteriologische Grundlagen der chemotherapeutischen Laboratoriumspraxis") ermittelt. Das Ergebnis dieser Untersuchungen am Beispiel der Verbindung Nr. 3 zeigt Tabelle 2.

[4] = tested on: T. violaceum; assay: Agar dilution test against dermatophytes; assay type: cell-based; details: Trichophyton violaceum; T. violaceum No. 10; read-out: MHK
Text: as §1

[5] = tested on: M. canis; assay: Agar dilution test against dermatophytes; assay type: cell-based; details: Microsporum canis, read-out: MHK
Text: as §1

[6] = tested on: T. mentagroph.; assay: Agar dilution test against dermatophytes; assay type: cell-based
Text: as §1

[7] = tested on: T. schoenleinii; assay: Agar dilution test against dermatophytes; assay type: cell-based; details: T. schoenleinii No. 9; read-out: MHK
Text: as §1

[8] = tested on: M. ferrugineum; assay: Agar dilution test against dermatophytes; assay type: cell-based; details: M. ferrugineum No. 5; read-out: MHK
Text: as §1

[9] = tested on: E. floccosum; assay: Agar dilution test against dermatophytes; assay type: cell-based; details: Epidermophyton floccosum; E. floccosum No. 157; read-out: MHK
Text: as §1

For `OC(Cn1cncn1)(c1ccc(Cl)cc1)c1ccc(Cl)cc1Cl` (centres unmarked) [Beispiel 5, 1-(4-Chlorphenyl)-1-(2,4-dichlorphenyl)-2-(1.2.4--triazol-1-yl)-äthan-1-ol-nitrat], the MHKMyzelph. [1] was <0,125 µg/ml and the “LD50 (Maus) p.o.” value [2] was >1000 mg/kg.
In the case of `OC(Cn1cncn1)(c1ccccc1)c1ccc(Cl)cc1Cl` (centres unmarked) [Beispiel 10, 1-Phenyl-1-(2,4-dichlorphenyl)-2-(1.2.4-triazol-1-yl)--äthan-1-ol-hydrochlorid], the MHKMyzelph. [1] is reported as <0,125 µg/ml and the “LD50 (Maus) p.o.” value [2] is reported as >1000 mg/kg.
With `OC(Cn1cncn1)(c1ccc(Cl)cc1)c1ccc(Cl)cc1` [Beispiel 2, 1,1-Bis-(4-chlorphenyl)-2-(1.2.4-triazol-1-yl)--äthan-1-ol-hydrochlorid] the MHKMyzelph. [1] was <0,125 µg/ml and the “LD50 (Maus) p.o.” value [2] was >1000 mg/kg.
With `OC(Cn1cncn1)(c1cccc(Cl)c1)c1ccc(Cl)cc1Cl` (centres unmarked) [Beispiel 16, 1-(3-Chlorphenyl)-1-(2,4-dichlorphenyl)-2-(1.2.4-triazol-1-yl)-äthan-1-ol-hydrochlorid] the MHKMyzelph. [1] was 1 µg/mL and the “LD50 (Maus) p.o.” value [2] was >1000 mg/kg.
With `OC(Cn1cncn1)(c1ccccc1Cl)c1ccc(Cl)cc1Cl` (centres unmarked) [Beispiel 13, 1-(2-Chlorphenyl)-1-(2,4-dichlorphenyl)-2-(1.2.4-triazol-1-yl)-äthan-1-ol] the MIC [1] was 1 mg/L (≈ 2.71 µM) and the LD50 [2] was > 1000 mg/kg.
In the case of `OC(Cn1cncn1)(c1ccc(Cl)cc1)c1ccc(Cl)cc1` [Beispiel 1, 1,1-Bis-(4-chlorphenyl)-2-(1.2.4-triazol-1-yl)--äthan-1-ol], the MIC [1] is reported as < 0.125 mg/L and the LD50 [2] is reported as > 1000 mg/kg.
In the case of `OC(Cn1cncn1)(c1cccc(Cl)c1)c1ccc(Cl)cc1Cl` (centres unmarked) [Beispiel 15, 1-(3-Chlorphenyl)-1-(2,4-dichlorphenyl)-2-(1.2.4-triazol-1-yl)-äthan-1-ol], the MHKMyzelph. [1] is reported as <0,125 µg/ml and the LD50 [2] is reported as > 1000 mg/kg.
With `OC(Cn1cncn1)(c1ccccc1)c1ccc(Cl)cc1` (centres unmarked) [Beispiel 7, 1-Phenyl-1-(4-chlorphenyl)-2-(1.2.4-triazol-1-yl)-äthan--1-ol-hydrochlorid] the “LD50 (Maus) p.o.” value [2] was >1000 mg/kg.
For `OC(Cn1cncn1)(c1ccc(Cl)cc1)c1ccc(Cl)cc1Cl` (centres unmarked) [Beispiel 4, 1-(4-Chlorphenyl)-1-(2,4-dichlorphenyl)-2-(1.2.4--triazol-1-yl)-äthan-1-ol-hydrochlorid], the MHKMyzelph. [1] was <0,125 µg/ml and the “LD50 (Maus) p.o.” value [2] was >1000 mg/kg.
With `OC(Cn1cncn1)(c1ccccc1)c1ccc(Cl)cc1` (centres unmarked) [Beispiel 8, 1-Phenyl-1-(4-chlorphenyl)-2-(1.2.4-triazol-1-yl)--äthan-1-ol-nitrat] the MIC [1] was < 0.125 mg/L and the LD50 [2] was > 1000 mg/kg.
With `OC(Cn1cncn1)(c1ccccc1)c1ccccc1Cl` (centres unmarked) [Beispiel 6, 1-Phenyl-1-(2-chlorphenyl)-2-(1.2.4-triazol-1-yl)--äthan-1-ol-hydrochlorid] the MIC [1] was < 0.125 mg/L and the LD50 [2] was > 1000 mg/kg.
For `OC(Cn1cncn1)(c1ccccc1Cl)c1ccc(Cl)cc1Cl` (centres unmarked) [Beispiel 14, 1-(2-Chlorphenyl)-1-(2,4-dichlorphenyl)-2-(1.2.4-triazol-1-yl)-äthan-1-ol-hydrochlorid], the MHKMyzelph. [1] was 1 µg/mL and the “LD50 (Maus) p.o.” value [2] was >1000 mg/kg.
For `OC(Cn1cncn1)(c1ccc(Cl)cc1)c1ccccc1Cl` (centres unmarked) [Beispiel 12, 1-(2-Chlorphenyl)-1-(4-chlorphenyl)-2-(1.2.4-triazol--1-yl)-äthan-1-ol-hydrochlorid], the MIC [1] was 1 mg/L and the LD50 [2] was > 1000 mg/kg.
For `OC(Cn1cncn1)(c1ccc(Cl)cc1)c1ccc(Cl)cc1Cl` (centres unmarked) [Beispiel 3, 1-(4-Chlorphenyl)-1-(2,4-dichlorphenyl)-2-(1,2,4-triazol-1-yl)-äthan-1-ol], the MIC [1] was < 0.125 mg/L, the MIC [3] was 0.25 mg/L (≈ 0.678 µM) and the MIC [4] was 2 mg/L (≈ 5.43 µM). It also gave an MIC ([5]; M. canis No. 167) of 4 mg/L (≈ 10.9 µM), an MIC ([5]; M. canis No. 168) of 2 mg/L (≈ 5.43 µM) and an MIC ([5]; M. canis No. 169) of 8 mg/L (≈ 21.7 µM). The MIC ([6]; T. mentagroph. No. 172, read-out: MHK) was 0.25 mg/L (≈ 0.678 µM), the MHK ([6]; T. mentagroph. No. 173) was 0,25 µg/ml and the MIC [7] was 0.25 mg/L (≈ 0.678 µM). The MIC [8] was 0.5 mg/L (≈ 1.36 µM), the MIC [9] was 16 mg/L (≈ 43.4 µM) and the “LD50 (Maus) p.o.” value [2] was >4000 mg/kg.
For `OC(Cn1cncn1)(c1ccccc1)c1ccc(Cl)cc1Cl` (centres unmarked) [Beispiel 11, 1-Phenyl-1-(2,4-dichlorphenyl)-2-(1.2.4-triazol-1-yl)--äthan-1-ol-nitrat], the MHKMyzelph. [1] was <0,125 µg/ml and the “LD50 (Maus) p.o.” value [2] was >1000 mg/kg.
With `OC(Cn1cncn1)(c1ccccc1)c1ccc(Cl)cc1Cl` (centres unmarked) [Beispiel 9, 1-Phenyl-1-(2,4-dichlorphenyl)-2-(1.2.4-triazol-1-yl)--äthan-1-ol] the MIC [1] was < 0.125 mg/L and the LD50 [2] was > 1000 mg/kg.
